The data set can be described thus: Solubility of aciclovir in water at room temperature. The following applies: room temperature (25° C.). The data set is classed as physicochemical. The procedure: Thus, an S/O solution could not be obtained. Thus, an aciclovir dispersion was prepared in the form of an S/O solution.

`Nc1nc2c(ncn2COCCO)c(=O)[nH]1` [aciclovir]: the solubility in water entry was “very poor”.

For the origin of these results see patent publication US20100298447A1, “COMPOSITE PRODUCT OF LOW-SOLUBILITY DRUG AND SURFACTANT, AND PROCESS FOR PRODUCTION THEREOF” (priority 2007, published 2010).
